{"source": "patent US20050220779A1", "about": "“Integrin linked kinase modulation of macrophage activation” (priority 2001, published 2005)", "type_in_all_cases": "cell-based, murine", "key": {"COX-2": {"test_system": "COX-2", "assay": "COX-2 protein expression in LPS-IFN-γ stimulated macrophages (western blot)", "settings": "Macrophages, LPS-INF-γ stimulated", "procedure": "(§1) Western blot analysis. After incubation with the indicated stimuli in the presence of ILK inhibitors, cells (duplicate samples, 2×10^6cell/6-wells plate) were washed in PBS and lysed on ice in 60 μl of lysis buffer. The protein content of each sample was determined using the Bradford protein assay kit (Bio-Rad, Richmond, Calif.). Absorbance was measured at 750 nm with a Beckman DU530 spectrophotometer (Palo Alto, Calif.). Proteins were mixed with 45×SDS sample buffer. Following separation of proteins by SDS-PAGE, using 8% bis-acrylamide in the separation gel, the proteins were transferred from the gels onto PVDF membranes using a MiniProtean III Cell (Bio-Rad), at 100 V for 1.5 h. Equal amounts of protein (5 μg) were loaded onto SDS-PAGE gels and examined by Western blot analysis with anti-Actin, anti-iNOS, anti-COX-2 murine monoclonal antibodies according to the manufacturers specifications (Transduction Laboratories). […] The Multi-Analyst/PC system from Biorad is being used to quantitate the bands of the expressed protein on the film. […] White light is chosen as the selected light source, thus the signal strength is measured in OD (optic density) units. […]\n(§2) Effects of ILK inhibitors on the LPS-IFN-γ-induced iNOS and COX-2 expression NO production requires that iNOS be enzymatically activity, therefore experiments were performed to examine whether the inhibitory effect of ILK inhibitors was mediated by […] iNOS protein synthesis or effects on the activity of existing enzyme. Stimulated cells were treated with ILK inhibitors (25 μM), and lysed 16 h later and a western blot analysis was performed to quantitate iNOS protein expression. […]\nNitric oxide and Prostaglandin E2 are two pleiotropic mediators produced at inflammatory sites by the inducible enzymes iNOS and cyclooxygenase-2 (COX-2), respectively. […] Finally, we evaluated the in-vitro effects of compounds on production of MCP-1 chemokine by TNF-α stimulated HUVEC cells. […]"}, "iNOS": {"test_system": "iNOS", "assay": "iNOS protein expression in LPS-IFN-γ stimulated macrophages (western blot)", "settings": "Macrophages, LPS-INF-γ stimulated", "procedure": "as §1, with “Laboratories). Primary Abs, in 5% blocking buffer (5% NFM/TTBS), were incubated with blots 2 h or overnight at 4° C., followed by incubation with peroxidase-conjugated secondary antibody. Chemiluminescence substrates were used to reveal positive bands. The bands were exposed on x-ray films.” for “Laboratories).”\nas §2"}, "[1]": {"test_system": "LPS-IFN-γ stimulated macrophages", "assay": "NO production of LPS-IFN-γ stimulated macrophages (cell type not specified; dose response, Table 2 and second Table 3)", "settings": "LPS-INF-γ stimulated", "procedure": "Treatment of primary macrophages and RAW 264.7 cells. […] Following 3 h incubation, at 37 C, 5% CO2 (macrophages were allowed to attach) cells were stimulated with LPS (0.5 μg/ml) and IFN-γ (100 U/ml) in the absence or presence of various concentrations of ILK inhibitors (all treatments were replicated six times). Cells were incubated for an additional 24 h, and cell free culture supernatants from each well were collected for NO and cytokine determination. The remaining cells were stained with crystal violet to determine effect of the inhibitors on cell survival.\nNO production. Following stimulation, the production of NO was determined by assaying culture supernatants for NO2^−, a stable reaction product of NO with molecular oxygen. Briefly, 100 μl of culture supernatant was reacted with an equal volume of Griess reagent at room temperature for 10 min. The absorbance at 550 nm was determined. All measurements were performed six times. The concentration of NO2^−was calculated by comparison with a standard curve prepared using NaNO2."}, "[2]": {"test_system": "IL-6 release in macrophages", "assay": "LPS-IFN-γ-induced IL-6 release in macrophages (ELISA)", "settings": "Mus musculus, Macrophage; 25 μM, 24 h, LPS (0.5 μg) IFN-γ (100 U)", "procedure": "Treatment of primary macrophages and RAW 264.7 cells. Primary macrophages (1.5×10^5 cells/well) and RAW 264.7 (4×10^4 cells/well) cells were grown in 96-well plates (nitrite assay), or 6-well plates (2×10^6 cells/well) for measurement of iNOS and COX-2 expression. Following 3 h incubation, at 37 C, 5% CO2 (macrophages were allowed to attach) cells were stimulated with LPS (0.5 μg/ml) and IFN-γ (100 U/ml) in the absence or presence of various concentrations of ILK inhibitors (all treatments were replicated six times). Cells were incubated for an additional 24 h, and cell free culture supernatants from each well were collected for NO and cytokine determination. The remaining cells were stained with crystal violet to determine effect of the inhibitors on cell survival.\nEnzyme immunoassays for mouse IL-6. IL-6 levels were determined with PharMingen's OptElA ELISA set developed using an anti-mouse IL-6 Ab pair and mouse rIL-6 standard (PharMingen). Maxisorp F16 multiwell strips (Nunc, Roskilde, Denmark) were coated with anti-mouse IL-6 capture Ab (at recommended concentration) in 0.1 M NaHCO3, pH 9.5, 100 μl/well, overnight at 4° C. Plates were washed three times with 0.05% Tween 20 in PBS (PBST) and blocked for 1 h at room temperature with 200 μl/well of 10% FCS in PBS (blocking and dilution buffer). […] Absorbance was read at 450 nm with an EL 312e microplate reader. […]"}}, "data": [{"compound": "NC1=NN=C(N)C1/N=N/c1ccc(F)c(C(F)(F)F)c1", "note": "[4-[(4-fluoro-3-trifluoromethylphenyl)hydrazono]-4H-pyrazole-3,5-diamine]", "values": [{"measurement": "COX-2 (%)", "setting": "COX-2", "value": 67, "unit": "%"}, {"measurement": "INOS (%)", "setting": "iNOS", "value": 88, "unit": "%"}, {"measurement": "NO (%)", "setting": "[1]", "value": 74, "unit": "%"}, {"measurement": "inhibition at 25 µM", "setting": "[2]", "value": 63, "unit": "%"}]}]}
